The test system of the test is T1, LIP1 esterase.
T1 construct: single band of 175 kDa on SDS-PAGE
The experiment in a line: pNP release at […] nm, Michaelis-Menten fit (GraphPad Prism). The class given is biochemical, Pseudozyma sp. NII 08165. Conditions: pH 8, 60 °C; 0.05-0.7 mM pNPP.

`CCCCCCCCCCCCCCCC(=O)Oc1ccc([N+](=O)[O-])cc1` [para-nitrophenyl palmitate]: the Km was found to be 10 µM.

In general, Km refers to the substrate concentration at which the rate is half of its maximum.

(Values after article PMC3996874, “Esterase Active in Polar Organic Solvents from the Yeast Pseudozyma sp. NII 08165” (Enzyme Research, 2014).)
